The data set in a line: gradient 5% acetonitrile 3 min, to 50% in 2 min, to 85% in 15 min, held 3 min, 100 µL/min. The settings on record: column: Zorbax Extend-C18 2.1 x 50 mm; eluents: water / acetonitrile, 0.1% formic acid. In outline: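 Pure standards were analyzed in mixtures of ~100 molecules using HPLC coupled to a quadrupole time-of-flight mass spectrometer, in both positive and negative ionization mode. Separation used a Zorbax Extend-C18 column (2.1 × 50 mm, 1.8 μm) at 100 μL/min, with water and acetonitrile each containing 0.1% formic acid. Dead and dwell volumes were 40 μL and 900 μL, and data were collected over 3 months. Retention time was read from computationally picked adduct peaks, each inspected manually.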
On to `CCCCn1c(=O)c2ccccc2n(Cc2nc(-c3cccc(Cl)c3)no2)c1=O`, for which the RP-LC retention time amounted to 1250 s.
As for `CCOc1ccccc1NC(=O)N1CCCC1c1cc(C)no1` (stereo not given), the figure is 854 s.
As for `Cc1cccc(CN2CCn3c(nnc3[C@@H]3C[C@@H](O)CN3Cc3ccccc3)C2)c1`, the figure is 650 s; as for `Cn1nc(C(=O)N2CCCC(C(=O)NC3CC3)C2)c2c1CCN(C(=O)c1ccco1)C2` (stereo not given), 594 s.
Under `Cc1cc(C)cc(N2CCC(NC(=O)c3ccc(Cl)s3)C2=O)c1` (stereo not given) stands 956 s; under `O=C(CC1CCCC1)NCCc1noc(C2CC2)n1`, 713 s.
As to `COC(=O)c1ccc2c(=O)n(-c3ccccc3)c(N3CCCC3)nc2c1`, the RP-LC retention time was found to be 908 s.
As for `Cc1ccc(C(=O)N2CCn3c(nnc3C(C)C)C2)s1`, the figure is 625 s; as for `COC(=O)c1cccc(-c2nc(-c3cn(Cc4ccccc4)nn3)no2)c1`, 964 s.
The compound `CC1CCN(c2nc(-c3ccc(Br)cc3)nc3ccccc23)CC1` showed an RP-LC retention time of 955 s.
Under `Cc1ccc(C(=O)COc2ccc(N3C(=O)C4CCC(C)CC4C3=O)cc2)cc1C` (stereo not given) stands 1120 s.
The compound `CCCC(=O)Nc1nnc(SCc2nnc(-c3ccccc3)o2)s1` registered an RP-LC retention time of 779 s.
In turn, `COc1cccc(CC(=O)Nc2cnn(C)c(=O)c2N2CCOCC2)c1` returned an RP-LC retention time of 725 s.
Under `O=C(NCCCN1CCCCC1)c1cc2n(n1)CCCN(Cc1ccc(Cl)cc1)C2=O` stands 582 s; under `O=C(NC1CCCCCC1)C1CCCN(c2ncnc3c2nc2n3CCCCC2)C1` (stereo not given), 816 s.
For the compound `COc1ccc(C2CC(=O)N(c3ccc(F)c(F)c3)C(=O)C2)cc1OC`, the RP-LC retention time turned out to be 852 s.
As for `CCOC(=O)c1csc(NC(=O)CCS(=O)(=O)c2ccc(OC)cc2)n1`, the figure is 700 s; as for `CCOC(=O)CC(NC(=O)N1CCC2(CC1)NC(=O)c1ccccc1O2)c1ccccc1` (stereo not given), 782 s; as for `O=C(CCn1cnc2cc(-c3noc(-c4ccc(F)c(F)c4)n3)ccc21)N1CCOCC1`, 740 s.
The compound `COc1ccc(-c2cc3nn(CC(=O)N4CCC(C)CC4)c(=O)n3c(C)n2)cc1` showed an RP-LC retention time of 894 s.
As for `Cc1ccc(NC(=O)Cn2nc(C(=O)N3CCCC3)c3ccccc32)cc1F`, the figure is 884 s.
Under `O=C(Cn1c(=O)c(CCC(=O)NC2CCCC2)nc2ccccc21)NCc1ccccc1` stands 782 s; under `COc1cn2c(cc1=O)C(=O)N(CCNC(=O)C1c3ccccc3Oc3ccccc31)CC2`, 592 s.
As for `CCCN1CCN(S(=O)(=O)c2cc(-c3cc(C(F)(F)F)[nH]n3)sc2C)CC1`, the figure is 707 s.
Regarding `Cn1cnnc1SCCNC(=O)C1CN(c2nc3ccccc3s2)C1`, the RP-LC retention time was determined as 573 s.
The compound `Cc1cc(F)ccc1NS(=O)(=O)c1cn(CC(C)C)c2ncccc12` registered an RP-LC retention time of 986 s.
Under `O=C(CCSc1ccccc1)N1CCN(CC(F)(F)F)CC1` stands 870 s.
As for `CN(C)[C@@H]1CN(Cc2cccc(OC(F)(F)F)c2)CC[C@@H]1CO`, the figure is 585 s.
Under `COc1ccccc1NC(=O)c1c(O)c2cccnc2n(-c2ccc(F)cc2)c1=O` stands 864 s; under `CN(C)c1ccc(CCCNC(=O)Cc2ccc(Cl)cc2)cc1`, 604 s.
As for `CC(=O)c1c(C)oc2ccc(NS(=O)(=O)c3cccc([N+](=O)[O-])c3)cc12`, the RP-LC retention time turned out to be 822 s.
As to `COc1ccc(-c2ncc3c(n2)CCN(S(=O)(=O)Cc2ccc(C)cc2)C3)cc1`, the RP-LC retention time stood at 1050 s.
With `Cc1nc2c(sc3nc(-c4ccccc4)ccc32)c(=O)n1CC(=O)Nc1ccccc1C(F)(F)F`, the RP-LC retention time is 1070 s.
As for `CCc1nncn1C1CCN(C(=O)c2cc(-c3cccs3)[nH]n2)C1` (stereo not given), the figure is 595 s; as for `CN(C)C(=O)c1cc2c(s1)CCC(C(=O)NCCc1ccccn1)C2` (stereo not given), 560 s; as for `O=C(NCCc1ccc(F)cc1)C(=O)Nc1ccc(Cl)cn1`, 918 s.
As for `N#Cc1ccc(C(=O)Nc2cnc(N3CCCCCC3)nc2)cc1`, the figure is 891 s; as for `Cc1cc(C)c(S(=O)(=O)N2CCC(c3cc(N)on3)CC2)cc1C`, 879 s.
As for `O=C(/C=C/c1ccccc1)NC(NC(=S)Nc1cccc2cccnc12)C(Cl)(Cl)Cl` (stereo not given), the figure is 1020 s; as for `Cn1ccc2c(cc(C(=O)NCc3ccccc3F)n2C)c1=O`, 678 s.
The compound `COc1ccc(C2Cn3cnc(C(=O)N4CCC(C(=O)NC5CCCCCC5)CC4)c3CO2)cc1` (stereo not given) came in with an RP-LC retention time of 797 s.
As for `CCCc1cc(C2CCCN2C(=O)Nc2ccc(C)cc2)no1` (stereo not given), the figure is 946 s; as for `Cc1ccc2nc(C(=O)NC(C)c3ccc(F)cc3)cn2c1` (stereo not given), 670 s.
As for `Cc1ccc(Nc2c(-c3ccccc3)nc3ccc(C)cn23)cc1`, the figure is 750 s.
Under `Cc1ccccc1S(=O)(=O)Nc1ccc(C2(C(=O)NCC3CCCO3)CC2)cc1` (stereo not given) stands 797 s.
On to `Cn1nc(C(=O)N2CCCC(C(=O)Nc3ccccc3)C2)c2c1CCN(C(=O)CCc1ccccc1)C2` (stereo not given), for which the RP-LC retention time is 800 s.
As for `COc1ccc(-c2nc3cnccn3c2Nc2ccc(Cl)cc2)cc1`, the figure is 896 s.
As for `Cc1[nH]c(C(=O)N2CCC(CC(=O)N(C)Cc3ccco3)CC2)c(C)c1C(=O)OC(C)C`, the figure is 798 s; as for `COc1ccc(OC)c(NC(=O)C2CCN(c3cc(N4CCCCC4)ncn3)CC2)c1`, 709 s.
Under `O=C(Cn1ccn2nc(-c3ccccc3)c(CO)c2c1=O)N1CCc2ccccc21` stands 848 s; under `COC1CN(c2ccc(C)cc2)C12CCN(C(=O)C1(c3ccccc3)CC1)CC2` (stereo not given), 1100 s.
`CC(C)c1ccc(-n2nc(N3CCN(C(=O)c4ccco4)CC3)ccc2=O)cc1` registered an RP-LC retention time of 842 s.
Under `O=C(NCc1cccnc1)C(CCO)Sc1nc2sc3c(c2c(=O)[nH]1)CCCC3` (stereo not given) stands 544 s.
Under `CCOc1ccc(NC(=O)Cn2c(=O)n(-c3ccc(F)cc3)c(=O)c3c2cc(C)n3C)cc1` stands 866 s.
Under `Cc1ccc2nc(CCNC(=O)Cn3nc(C(=O)N4CCCC4)c4ccccc43)[nH]c2c1` stands 613 s; under `COc1cc(C(=O)N2CCN(c3cc(C)c4ccccc4n3)CC2)cc(OC)c1OC`, 635 s.
`CCc1ccc(CNC(=O)Cn2cnc3nc4c(cc3c2=O)CC(C)CC4)cc1` (stereo not given) displayed an RP-LC retention time of 855 s.
As for `CCCn1c(=O)sc2cc(S(=O)(=O)N3CCC(C(=O)Nc4cccc(CC)c4)CC3)ccc21`, the figure is 969 s; as for `c1ccc(OCc2cn(CCC3CCCCN3)nn2)cc1` (stereo not given), 552 s.
Under `COC(=O)c1ccc(NC(=O)Cn2nc3n(c2=O)CCCC3)cc1` stands 647 s.
As for `COc1cccc(NC(=O)N2CC(c3nc(Cc4ccccc4)no3)C2)c1OC`, the figure is 831 s; as for `CCOc1ccccc1C1C(C#N)=C(N)Oc2cc(C)n(CCN(C)C)c(=O)c21` (stereo not given), 597 s.
On to `CCSc1ccccc1C(=O)Nc1cccc2ccc(-n3ccnc3)nc12`, for which the RP-LC retention time was determined as 668 s.
As for `CN(C)CCNC(=O)Cc1cccn1-c1ccc(Cl)cc1`, the figure is 618 s.
As for `CS(=O)(=O)c1ccc(Cl)c(NC(=O)c2cccnc2)c1`, the figure is 590 s.
Under `COc1cccc(NC(=O)CN2C(=O)NC3(CCC(C)CC3)C2=O)c1` (stereo not given) stands 789 s; under `Cc1ccc(CN2CCC(CNC(=O)Cn3c(=O)c(C)nc4cc(C)c(C)cc43)C2)cc1` (stereo not given), 638 s; under `Cc1ccnn1-c1ccc(SCC(=O)Nc2cc(F)ccc2F)nn1`, 934 s.
`Cn1nc(C2CCN(C(=O)NCc3ccccc3)CC2)c2c1CCOC2` gave an RP-LC retention time of 668 s.
Under `CC1CN(S(=O)(=O)c2cccc(-c3cn4ccccc4n3)c2)CC(C)O1` (stereo not given) stands 640 s; under `CN1c2ccc(F)cc2C(=O)NC12CCN(C(=O)c1cccc(F)c1)CC2`, 751 s.
Under `Cc1ccc2ccc(C#N)cc2c1O` stands 892 s; under `Cn1cc(C2=C(c3ccc(Cl)cc3Cl)C(=O)NC2=O)c2ccccc21`, 1110 s; under `O=c1c2c(ccn1Cc1nc(-c3ccsc3)no1)ccn2CC1CC1`, 980 s.
As for `Cn1cc(C(=O)N2CCN(C3CCCCC3)CC2)c2cccnc21`, the figure is 632 s.
`O=C(NCc1ccco1)c1ccc2c(c1)nnn2Cc1ccc(F)cc1` came in with an RP-LC retention time of 808 s.
As for `NS(=O)(=O)c1ccc(NC(=O)C2(c3cc(-c4ccco4)on3)CC2)cc1`, the figure is 745 s; as for `COc1ccc(NC(=O)Cn2cnc3nc(N4CCC(C(=O)NC5CC5)CC4)sc3c2=O)cc1`, 681 s.
Under `COc1ccccc1CCC(=O)N1C[C@@H]2C[C@H](NC(=O)c3ccccc3)[C@H]1C2` stands 816 s.
Compound `O=C(NCC1CCCCC1)C1CCN(C(=O)c2ncn3c2COC(c2ccc(F)cc2)C3)CC1` (stereo not given) gave an RP-LC retention time of 846 s.

The record behind these values is the METLIN SMRT retention time set (Domingo-Almenara et al. 2019).
